# PMC8376405 (Protein Science : A Publication of the Protein Society, 2021)
# T1: CtTrpAB (Chlamydia trachomatis, UniProt O84172)
# T1 sequence (O84172 1-392): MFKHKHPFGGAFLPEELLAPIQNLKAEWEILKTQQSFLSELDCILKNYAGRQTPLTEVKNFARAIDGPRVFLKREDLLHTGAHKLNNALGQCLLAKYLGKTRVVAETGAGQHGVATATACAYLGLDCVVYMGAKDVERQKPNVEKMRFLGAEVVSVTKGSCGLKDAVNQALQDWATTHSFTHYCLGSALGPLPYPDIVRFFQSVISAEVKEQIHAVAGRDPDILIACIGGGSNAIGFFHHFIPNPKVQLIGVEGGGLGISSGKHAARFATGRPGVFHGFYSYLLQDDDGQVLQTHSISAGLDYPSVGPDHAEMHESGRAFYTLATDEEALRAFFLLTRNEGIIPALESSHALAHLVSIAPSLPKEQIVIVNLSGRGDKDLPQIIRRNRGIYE
# T1 sequence (O84173 1-253 partner): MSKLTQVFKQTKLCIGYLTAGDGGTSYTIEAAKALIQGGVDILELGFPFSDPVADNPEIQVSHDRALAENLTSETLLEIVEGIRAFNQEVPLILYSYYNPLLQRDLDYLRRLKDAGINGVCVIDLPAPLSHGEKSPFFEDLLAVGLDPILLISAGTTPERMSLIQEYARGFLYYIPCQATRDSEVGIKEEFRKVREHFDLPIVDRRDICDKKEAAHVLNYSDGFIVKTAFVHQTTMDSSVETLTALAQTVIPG
# B1: CtTrpAB (Chlamydia trachomatis D/UW-3/CX) (protein)
# chain: T1 sequence (O84172 1-392)
# How the values were obtained:
# CtTrpAB = biological target: T1, CtTrpAB; assay: X-ray crystal structure, […] Å; assay type: binding; settings: covalent adduct to beta Lys84 in TrpB; sulfate in the serine site
# purified protein = substrate: c1ccc2[nH]ccc2c1; assay: purified protein; assay type: biochemical, Chlamydia trachomatis; settings: L-Ser co-substrate, 40 uM PLP, 100 mM KCl, pH 8.0, room temperature
Molecule,"X-ray crystal structure, 2.42 Å (CtTrpAB)",kcat (purified protein) [s⁻¹]
Cc1ncc(COP(=O)(O)O)c(C=O)c1O [pyridoxal 5′-phosphate],"The CtTrpB active site, marked by the PLP adduct to βLys84",–
B1,–,0.352
